Tests used:
Assay type in all cases: physicochemical
[1] = Dynamic moisture sorption (DMS) assessment; details: for solid form (PXRD) after moisture sorption-desorption: PXRD before and after the DMS experiment; for hygroscopicity: from DMS profile, Form 1 per European Pharmacopoeia Technical Guide classification; for hysteresis between sorption and desorption: two cycles of water sorption and desorption
Description: In one embodiment, the crystalline neutral monohydrate Form 1 is characterized by the DMS profile in FIG. 4. Samples of Form 1 were subjected to isothermal moisture sorption analysis at 25° C. […] The step-like profile at 40-60% RH may indicate capillary condensation. At 90% RH, the total moisture uptake was ˜0.5%.
In one embodiment, the crystalline neutral Form 2 is characterized by the DMS profile in FIG. 11. Samples of Form 2 were subjected to isothermal moisture sorption analysis at 25° C. With increasing relative humidity, the amount of water adsorbed by the solid increased gradually up to 75% RH and steeply between 75%-90% RH […].
In one embodiment, the crystalline neutral anhydrous Form 3 is characterized by the DMS profile in FIG. 29. The DMS thermogram of Form 3 is similar to that of Form 2 (FIG. 11). […] The sample, however, loses the adsorbed water during desorption segment and returns to an anhydrous state. Overlay of the PXRD patterns of the sample before and after it was subjected the moisture sorption-desorption experiment is shown in FIG. 30. […] Form 3, like Form 2, is hygroscopic.
In one embodiment, the crystalline neutral anhydrous Form 4 is characterized by the DMS profile in FIG. 37. […] Form-4 is non-hygroscopic. […] Form 4, which is obtained from the monohydrate Form 1, is non-hygroscopic, whereas Form 3, which is obtained from anhydrous Form 2, is hygroscopic. […] Overlay of the PXRD patterns of the sample before and after it was subjected the moisture sorption-desorption experiment is shown in FIG. 30.
Moisture sorption and desorption data on the crystalline compounds were collected on a VTI SGA-100 Vapor Sorption Analyzer. Sorption and desorption data were collected over a range of 5% to 90% relative humidity (RH) at 5% RH intervals. Equilibrium criteria used for analysis were less than 0.01% weight change in 5 minutes, with a maximum equilibration time of three hours if the weight criterion was not met. Samples were subjected to initial drying or desorption steps to 5% RH followed by the sorption-desorption cycle. Data were collected at a time interval of two minutes or 0.01% change in weight.

[2] = Retention of lattice water under ambient conditions and under high vacuum
[3] = Heat induced decomposition by DSC and TGA; details: 10° C. per minute, nitrogen purge
Description: (§1) The crystalline compounds were subjected to temperature scan using a TA Instruments Q100 differential scanning calorimeter equipped with a refrigerated cooling system. Samples were loaded into aluminum pans with crimped lids. In most cases, the samples were heated to 250° C. at a rate of 10° C. per minute under a purge of nitrogen gas. The data acquisition was controlled by Thermal Advantage software Release 5.1.2 and the data were analyzed with Universal Analysis 2000 software (version 4.7A).
as §1, with “Q500 thermal gravimetric analyzer.” for “Q100 differential scanning calorimeter equipped with a refrigerated cooling system.”, “platinum” for “aluminum”, “and” for “with crimped lids. In most cases, the samples were”

[4] = Exposure of Form 2 to 84% relative humidity, analysis by PXRD; details: 84% RH for seven days
Text: In one experiment, a sample of Form 2 was exposed to 84% RH for seven days. […] This experiment established that Form 2 is metastable to the monohydrate Form 1 in high relative humidities (>75% RH). Accordingly, in another embodiment, the crystalline neutral monohydrate Form 1 can be prepared by (a′) exposing the crystalline neutral Form 2 to high humidity; and in one embodiment exposing Form 2 to about >75% relative humidity, typically for about 5-7 days.

[5] = Slurry of Form 2 in water, analysis by PXRD; details: slurried in water (e.g., deionized water) for five days
Text: This experiment established that Form 2 is metastable to the monohydrate Form 1 in solutions containing water. Thus, in yet another embodiment, the crystalline neutral monohydrate Form 1 can be prepared by (a″) reslurrying the crystalline neutral Form 2 in water or an aqueous solution; (b″) heating then cooling the resulting slurry; (c″) optionally stirring or sonicating to complete dissolution; and allowing solids to form and isolating the solids to yield the crystalline neutral monohydrate Form 1. […] Step (a″) is typically conducted by first treating Form 2 with methanol, and subsequently adding water as an anti-solvent to form a slurry. Step (b″) generally involves heating the slurry to a temperature within the range of about 55-75° C., and in one embodiment to about 60° C. The cooling in step (b″) is generally to about room temperature.

water taken up when exposed up to 90% RH ([1]; DMS, up to 90% RH)	hygroscopicity [1]	hysteresis between sorption and desorption [1]	water taken up between 75% RH and 90% RH ([1]; DMS, between 75% RH and 90% RH)	loss of lattice water ([2]; exposed to ambient conditions for more than a month)	loss of lattice water ([2]; placed in high vacuum for more than 24 hours)	total moisture uptake ([1]; isothermal moisture sorption at 25° C., at 90% RH)	heat induced decomposition temperature [3]	total quantity of water taken up in the DMS experiment ([1]; DMS, 25° C.)	solid form after exposure to high humidity [4]	solid form after slurrying in water [5]	SMILES	solid form (PXRD) after moisture sorption-desorption [1]
less than 0.1 % by weight	non-hygroscopic	no hysteresis									CC(C)OC(=O)[C@H](O)CN(Cc1ccc(-c2cccc(Cl)c2)cc1)NC(=O)c1cc(O)no1 [Form 4, (R)-3-[N-(3′-chlorobiphenyl-4-ylmethyl)-N′-(3-hydroxyisoxazole-5-carbonyl)hydrazino]-2-hydroxypropionic acid isopropyl ester]	retained its solid-state structure
	hygroscopic		about 3.5%								CC(C)OC(=O)[C@H](O)CN(Cc1ccc(-c2cccc(Cl)c2)cc1)NC(=O)c1cc(O)no1 [Form 3, (R)-3-[N-(3′-chlorobiphenyl-4-ylmethyl)-N′-(3-hydroxyisoxazole-5-carbonyl)hydrazino]-2-hydroxypropionic acid isopropyl ester]	returns to the same solid form after moisture sorption and desorption
	slightly hygroscopic	did not show hysteresis		did not lose lattice water	did not lose lattice water	~0.5%	> 175 °C				CC(C)OC(=O)[C@H](O)CN(Cc1ccc(-c2cccc(Cl)c2)cc1)NC(=O)c1cc(O)no1 [Form 1, (R)-3-[N-(3′-chlorobiphenyl-4-ylmethyl)-N′-(3-hydroxyisoxazole-5-carbonyl)hydrazino]-2-hydroxypropionic acid isopropyl ester]	did not show any change in their PXRD pattern
	hygroscopic	showed distinct hysteresis					> 175 °C	3.5-3.6%	converts to Form 1 at high humidities	PXRD pattern consistent with Form 1	CC(C)OC(=O)[C@H](O)CN(Cc1ccc(-c2cccc(Cl)c2)cc1)NC(=O)c1cc(O)no1 [Form 2, (R)-3-[N-(3′-chlorobiphenyl-4-ylmethyl)-N′-(3-hydroxyisoxazole-5-carbonyl)hydrazino]-2-hydroxypropionic acid isopropyl ester]	showed a PXRD pattern that matched with the starting material
